Measurements: patent US20040110763A1, “Pyrazolopyridine compound and pharmaceutical use thereof” (priority 2000, published 2004)

| SMILES | melting point |
| --- | --- |
| CC(C)Oc1ccn2nc(-c3ccccc3)c(-c3ccc(=O)n(C(C)C)n3)c2c1 [Example 10, 5-Isopropoxy-3-(3-oxo-2-isopropyl-2,3-dihydropyridazin-6-yl)-2-phenylpyrazolo[1,5-a]pyridine] | 162 to 163 °C |
| COC(=O)Nc1ccn2nc(-c3ccccc3)c(-c3ccc(=O)n(C(C)C)n3)c2c1 [Example 151, Methyl 3-(3-oxo-2-isopropyl-2,3-dihydropyridazin-6-yl)-2-phenylpyrazolo[1,5-a]pyridin-5-ylcarbamate] | 213 to 214 °C |
| COc1ccn2nc(-c3ccccc3)c(-c3ccc(=O)[nH]n3)c2c1 [Example 1, 5-methoxy-3-(3-oxo-2,3-dihydropyridazin-6-yl)-2-phenylpyrazolo[1,5-a]-pyridine] | 245.5 to 247 °C |
| CC(C)n1nc(-c2c(-c3ccccc3)nn3ccc(OCCN4[C@H](C)COC[C@@H]4C)cc23)ccc1=O [Example 18, 5-[2-{(3R,5S)-3,5-Dimethyl-4-morpholinyl}ethoxy]-3-(3-oxo-2-isopropyl-2,3-dihydropyridazin-6-yl)-2-phenylpyrazolo[1,5-a]pyridine] | 145 to 146 °C |
| CC(C)n1nc(-c2c(-c3ccccc3)nn3ccc(OCCN4CCOCC4)cc23)ccc1=O [Example 6, 5-[2-(4-morpholinyl)ethoxy]-3-(3-oxo-2-isopropyl-2,3-dihydropyridazin-6-yl)-2-phenylpyrazolo[1,5-a]pyridine] | 160 to 162 °C |
| CC(C)n1nc(-c2c(-c3ccccc3)nn3cccc(OCCN(C)C)c23)ccc1=O [Example 198, 4-(2-(Dimethylamino)ethoxy)-3-(3-oxo-2-isopropyl-2,3-dihydropyridazin-6-yl)-2-phenylpyrazolo[1,5-a]pyridine] | 137 to 138 °C |
| CCCCNC(=O)COc1ccn2nc(-c3ccccc3)c(-c3ccc(=O)n(C(C)C)n3)c2c1 [Example 65, N-Butyl-2-{[3-(3-oxo-2-isopropyl-2,3-dihydropyridazin-6-yl)-2-phenylpyrazolo[1,5-a]pyridin-5-yl]oxy}acetamide] | 151 to 152 °C |
| CC(C)n1nc(-c2c(-c3ccccc3)nn3ccc(N4CCNCC4)cc23)ccc1=O [Example 107, 5-(1-piperazinyl)-3-(3-oxo-2-isopropyl-2,3-dihydropyridazin-6-yl)-2-phenylpyrazolo[1,5-a]pyridine] | 203 to 204 °C |
| CC(C)n1nc(-c2c(-c3ccccc3)nn3ccc(C#CC(C)(C)O)cc23)ccc1=O [Example 136, 5-(3-hydroxy-3-methyl-1-butynyl)-3-(3-oxo-2-isopropyl-2,3-dihydropyridazin-6-yl)-2-phenylpyrazolo[1,5-a]pyridine] | 171 to 172 °C |
| CC(C)n1nc(-c2c(-c3ccccc3)nn3ccc(C(=O)NC4CCCCCC4)cc23)ccc1=O [Example 140, N-Cycloheptyl-3-(3-oxo-2-isopropyl-2,3-dihydropyridazin-6-yl)-2-phenylpyrazolo[1,5-a]pyridine-5-carboxamide] | 239 to 240 °C |
| CC(C)n1nc(-c2c(-c3ccccc3)nn3ccc(OCC(=O)OCc4ccccc4)cc23)ccc1=O [Example 32, Benzyl {[3-(3-oxo-2-isopropyl-2,3-dihydropyridazin-6-yl)-2-phenylpyrazolo[1,5-a]pyridin-5-yl]oxy}acetate] | 174 to 174.5 °C |
| CCn1nc(-c2c(-c3ccccc3)nn3ccc(OC)cc23)ccc1=O [Example 116, 5-Methoxy-3-(3-oxo-2-ethyl-2,3-dihydropyridazin-6-yl)-2-phenylpyrazolo[1,5-a]pyridine] | 148 to 149 °C |
| CCCOc1cccn2nc(-c3ccccc3)c(-c3ccc(=O)n(C(C)C)n3)c12 [Example 197, 4-n-Propoxy-3-(3-oxo-2-isopropyl-2,3-dihydropyridazin-6-yl)-2-phenylpyrazolo [1,5-a]pyridine] | 176 to 177 °C |
| CCCCNC(=O)c1ccn2nc(-c3ccccc3)c(-c3ccc(=O)n(C(C)C)n3)c2c1 [Example 143, N-(n-Butyl)-3-(3-oxo-2-isopropyl-2,3-dihydropyridazin-6-yl)-2-phenylpyrazolo[1,5-a]pyridine-5-carboxamide] | 185 to 186 °C |
| CC(=O)Nc1ccn2nc(-c3ccccc3)c(-c3ccc(=O)n(C(C)C)n3)c2c1 [Example 147, 5-acetylamino-3-(3-oxo-2-isopropyl-2,3-dihydropyridazin-6-yl)-2-phenylpyrazolo[1,5-a]pyridine] | 221 to 222 °C |
| CC(C)n1nc(-c2c(-c3ccccc3)nn3ccc(N4CCN(C(=O)OC(C)(C)C)CC4)cc23)ccc1=O [Example 104, tert-Butyl 4-[3-(3-oxo-2-isopropyl-2,3-dihydropyridazin-6-yl)-2-phenylpyrazolo[1,5-a]pyridin-5-yl]-1-piperazinecarboxylate] | 163 to 164 °C |
| CC(C)n1nc(-c2c(-c3ccccc3)nn3ccc(C(=O)NCc4ccccn4)cc23)ccc1=O [Example 144, N-(2-Pyridinylmethyl)-3-(3-oxo-2-isopropyl-2,3-dihydropyridazin-6-yl)-2-phenylpyrazolo[1,5-a]pyridine-5-carboxamide] | 193 to 194 °C |
| CC(C)n1nc(-c2c(-c3ccccc3)nn3cccc(O)c23)ccc1=O [Example 195, 4-Hydroxy-3-(3-oxo-2-isopropyl-2,3-dihydropyridazin-6-yl)-2-phenylpyrazolo[1,5-a]pyridine] | 229 to 230 °C |
| COc1ccn2nc(-c3ccccc3)c(-c3ccc(=O)n([C@@H]4CCOC4)n3)c2c1 [Example 119, 5-Methoxy-3-[3-oxo-2-((3R)-tetrahydrofuran-3-yl)-2,3-dihydropyridazin-6-yl]-2-phenylpyrazolo[1,5-a]pyridine] | 194 to 195 °C |
| CC(C)C(=O)Nc1ccn2nc(-c3ccccc3)c(-c3ccc(=O)n(C(C)C)n3)c2c1 [Example 149, 5-(2-Methylpropanoylamino)-3-(3-oxo-2-isopropyl-2,3-dihydropyridazin-6-yl)-2-phenylpyrazolo[1,5-a]pyridine] | 199 to 200 °C |
| COc1ccn2nc(-c3ccc(F)cc3)c(-c3ccc(=O)n(C(C)C)n3)c2c1 [Example 129, 5-Methoxy-3-(3-oxo-2-isopropyl-2,3-dihydropyridazin-6-yl)-2-(4-fluorophenyl)pyrazolo[1,5-a]pyridine] | 176 to 177 °C |
| CC(=O)COc1ccn2nc(-c3ccccc3)c(-c3ccc(=O)n(C(C)C)n3)c2c1 [Example 27, 5-(2-Oxopropoxy)-3-(3-oxo-2-isopropyl-2,3-dihydropyridazin-6-yl)-2-phenylpyrazolo[1,5-a]pyridine] | 172.5 to 173.5 °C |
| CC(C)n1nc(-c2c(-c3ccccc3)nn3ccc(OCCC4CCCC4)cc23)ccc1=O [Example 33, 5-(2-cyclopentylethoxy)-3-(3-oxo-2-isopropyl-2,3-dihydropyridazin-6-yl)-2-phenylpyrazolo[1,5-a]pyridine] | 159.5 to 160.5 °C |
| CCn1nc(-c2c(-c3ccc(F)cc3)nn3ccc(OC)cc23)ccc1=O [Example 131, 5-Methoxy-3-(3-oxo-2-ethyl-2,3-dihydropyridazin-6-yl)-2-(4-fluorophenyl)pyrazolo[1,5-a]pyridine] | 179 to 180 °C |
